Conditions: 343.14 K, Liquid, Vibrating tube method

CCCCCCC(=O)OCC(COC(=O)CCCCCC)(COC(=O)CCCCCC)COC(=O)CCCCCC [pentaerythritol tetraheptanoate]
Conditions | mass density [kg/m3]
18157 kPa | 953.7
18178 kPa | 953.7
18297 kPa | 953.7
18319 kPa | 953.8
18346 kPa | 953.8
18368 kPa | 953.7
18394 kPa | 953.9
18417 kPa | 953.8
18440 kPa | 953.8
18467 kPa | 954
18490 kPa | 953.8
18513 kPa | 953.9
18736 kPa | 954
18759 kPa | 954.1
18788 kPa | 954.2
18811 kPa | 954.1
18834 kPa | 954.2
18863 kPa | 954.2
18886 kPa | 954.2
18911 kPa | 954.2
18939 kPa | 954.2
18963 kPa | 954.3
18988 kPa | 954.2
19016 kPa | 954.2
19305 kPa | 954.6
19330 kPa | 954.5
19356 kPa | 954.5
19386 kPa | 954.6
19411 kPa | 954.6
19743 kPa | 954.6
19769 kPa | 954.7
19796 kPa | 954.8
19828 kPa | 954.7
19854 kPa | 954.8
19881 kPa | 954.8
19913 kPa | 954.8
19941 kPa | 954.8
19968 kPa | 954.8
19994 kPa | 954.9
20028 kPa | 954.9
20054 kPa | 955
20087 kPa | 954.9
20115 kPa | 955
20142 kPa | 955
20169 kPa | 955.2
20203 kPa | 955.1
20230 kPa | 955.1
20258 kPa | 955.1
20441 kPa | 955.3
20475 kPa | 955.2
20533 kPa | 955.4
20567 kPa | 955.3
20596 kPa | 955.3
20625 kPa | 955.3
20660 kPa | 955.3
20722 kPa | 955.3
20752 kPa | 955.5
20817 kPa | 955.5
20847 kPa | 955.4
20877 kPa | 955.4
20907 kPa | 955.5
20942 kPa | 955.6
20972 kPa | 955.5
21003 kPa | 955.6
21039 kPa | 955.6
21133 kPa | 955.6
21170 kPa | 955.7
21200 kPa | 955.8
21230 kPa | 955.8
21267 kPa | 955.7
21298 kPa | 955.9
21330 kPa | 955.8
21368 kPa | 955.8
21399 kPa | 955.8
21431 kPa | 955.9
21462 kPa | 955.8
21500 kPa | 956
21533 kPa | 955.8
21565 kPa | 956
21597 kPa | 956
21636 kPa | 955.9
21669 kPa | 956
21702 kPa | 956
21740 kPa | 956
21773 kPa | 956
21806 kPa | 956.1
21839 kPa | 956.1
21878 kPa | 956.2
21912 kPa | 956.2
21946 kPa | 956.2
21986 kPa | 956.1
22020 kPa | 956.3
22053 kPa | 956.2
22086 kPa | 956.1
22236 kPa | 956.4
22270 kPa | 956.5
22311 kPa | 956.5
22345 kPa | 956.4
22380 kPa | 956.5
22421 kPa | 956.5
22456 kPa | 956.5
22491 kPa | 956.6
22526 kPa | 956.5
22569 kPa | 956.6
22604 kPa | 956.6
22640 kPa | 956.7
22675 kPa | 956.7
22776 kPa | 956.7
22834 kPa | 956.7
22870 kPa | 956.8
22914 kPa | 956.8
22950 kPa | 956.8

From the NIST ThermoML archive (doi:10.1021/je060271a)
